Reference: ChEMBL document CHEMBL3112430, “Biological evaluation of new antitumor taxoids: alteration of substitution at the C-7 and C-10 of docetaxel” (2014)
Calls of active or inactive are those of the source. The calls are words filed in the database; no cut-off is given here.

How the values were obtained:
Assay type in all cases: functional
[1] = Growth inhibition of human U937 cells by MTT assay; details: U-937
[2] = system: MOLT-4; experiment: Growth inhibition of human MOLT4 cells by MTT assay
[3] = system: HL-60; experiment: Growth inhibition of human HL60 cells by MTT assay
[4] = system: Huh-7; experiment: Growth inhibition of human HuH7 cells by MTT assay
[5] = system: MCF7; experiment: Growth inhibition of human MCF7 cells by MTT assay
[6] = Growth inhibition of human SGC7901 cells by MTT assay; details: SGC-7901
[7] = (§1) Growth inhibition of human HT1080 cells by MTT assay; details: HT-1080
[8] = Growth inhibition of human Bel7402 cells by MTT assay; details: Bel-7402
[9] = system: K562; experiment: Growth inhibition of human K562 cells by MTT assay
[10] = Growth inhibition of human PANC1 cells by MTT assay; details: PANC-1
[11] = system: DU-145; experiment: Growth inhibition of human DU145 cells by MTT assay
[12] = system: HeLa; experiment: Growth inhibition of human HeLa cells by MTT assay
[13] = Growth inhibition of human BGC823 cells by MTT assay; details: BGC-823
[14] = system: A549; experiment: Growth inhibition of human A549 cells by MTT assay
[15] = system: A-431; experiment: Growth inhibition of human A431 cells by MTT assay
[16] = system: A549; experiment: Ratio of taxol GI50 to compound GI50 for human A549 cells
[17] = system: HT-1080; experiment: as §1

SMILES	GI50 [2]	GI50 [3]	GI50 [4]	GI50 [5]	GI50 [9]	GI50 [11]	GI50 [12]	GI50 [14]	GI50 [15]	GI50 [17]	GI50 [1]	GI50 [6]	GI50 [7]	GI50 [8]	GI50 [10]	GI50 [13]	RatioGI50 [16]
CC(=O)O[C@H]1C(=O)[C@@]2(C)[C@H]([C@H](OC(=O)c3ccccc3)[C@]3(O)C[C@H](OC(=O)[C@H](O)[C@@H](NC(=O)c4ccccc4)c4ccccc4)C(C)=C1C3(C)C)[C@]1(OC(C)=O)CO[C@@H]1C[C@@H]2O [PACLITAXEL]	2.23 nM	–	207 nM	1.29 nM	7.01 nM	5.57 nM	3.21 nM	18.7 nM	2.35 nM	–	2.39 nM	3.09 nM	3.89 nM	1.79 nM	2.41 nM	3.6 nM	–
CO[C@H]1C(=O)[C@]2(C)[C@@H](OC)C[C@H]3OC[C@@]3(OC(C)=O)[C@H]2[C@H](OC(=O)c2ccccc2)[C@]2(O)C[C@H](OC(=O)[C@H](O)[C@@H](NC(=O)OC(C)(C)C)c3ccccc3)C(C)=C1C2(C)C [CABAZITAXEL]	–	4.74 nM	–	1.19 nM	4.19 nM	1.43 nM	1.8 nM	1.48 nM	1.48 nM	–	0.539 nM	0.355 nM	1.41 nM	–	1.28 nM	467 nM	–
COCO[C@H]1C(=O)[C@]2(C)[C@@H](OCOC)C[C@H]3OC[C@@]3(OC(C)=O)[C@H]2[C@H](OC(=O)c2ccccc2)[C@]2(O)C[C@H](OC(=O)[C@H](O)[C@@H](NC(=O)OC(C)(C)C)c3ccccc3)C(C)=C1C2(C)C	–	1230 nM	257 nM	615 nM	inactive	2.09 nM	1.24 nM	563 nM	275 nM	inactive	6.15 nM	966 nM	–	661 nM	1.89 nM	80.5 nM	–
CC(=O)O[C@@]12CO[C@@H]1C[C@H](OC(=O)C(C)(CO)CO)[C@@]1(C)C(=O)[C@H](OC(=O)C(C)(CO)CO)C3=C(C)[C@@H](OC(=O)[C@H](O)[C@@H](NC(=O)OC(C)(C)C)c4ccccc4)C[C@@](O)([C@@H](OC(=O)c4ccccc4)[C@H]21)C3(C)C	263 nM	376 nM	104 nM	130 nM	554 nM	65.1 nM	225 nM	159 nM	1.25 nM	–	198 nM	558 nM	166 nM	11.9 nM	170 nM	984 nM	–

Now from value to compound, other results behind:

GI50 [2]	GI50 [3]	GI50 [4]	GI50 [5]	GI50 [9]	GI50 [11]	GI50 [12]	GI50 [14]	GI50 [15]	GI50 [17]	SMILES	GI50 [1]	GI50 [6]	GI50 [7]	GI50 [8]	GI50 [10]	GI50 [13]	RatioGI50 [16]
749 nM	57.9 nM	227 nM	345 nM	936 nM	982 nM	407 nM	3.1 nM	6.73 nM	–	COCCO[C@H]1C(=O)[C@]2(C)[C@@H](OCCOC)C[C@H]3OC[C@@]3(OC(C)=O)[C@H]2[C@H](OC(=O)c2ccccc2)[C@]2(O)C[C@H](OC(=O)[C@H](O)[C@@H](NC(=O)OC(C)(C)C)c3ccccc3)C(C)=C1C2(C)C	38.8 nM	68.2 nM	480 nM	57.3 nM	295 nM	2 nM	–
–	118 nM	113 nM	7.41 nM	470 nM	413 nM	6.65 nM	6.76 nM	38.5 nM	–	CC(=O)O[C@@]12CO[C@@H]1C[C@H](OCCO)[C@@]1(C)C(=O)[C@H](OCCO)C3=C(C)[C@@H](OC(=O)[C@H](O)[C@@H](NC(=O)OC(C)(C)C)c4ccccc4)C[C@@](O)([C@@H](OC(=O)c4ccccc4)[C@H]21)C3(C)C	7.41 nM	92.5 nM	472 nM	56 nM	296 nM	128 nM	–
268 nM	63.7 nM	87.5 nM	1.19 nM	483 nM	3.69 nM	2.53 nM	1.94 nM	2.27 nM	–	CCOCCO[C@H]1C(=O)[C@]2(C)[C@@H](OCCOCC)C[C@H]3OC[C@@]3(OC(C)=O)[C@H]2[C@H](OC(=O)c2ccccc2)[C@]2(O)C[C@H](OC(=O)[C@H](O)[C@@H](NC(=O)OC(C)(C)C)c3ccccc3)C(C)=C1C2(C)C	1.95 nM	2.27 nM	2.83 nM	1.56 nM	150 nM	816 nM	9
